Source: patent publication US6562602B2, “Fermentation and purification of mycolactones” (priority 2000, dated 2003)

Test: stability of individual enriched mycolactone isomers in presence and absence of laboratory light, followed by HPLC
Type: physicochemical
Conditions: ambient light versus no light; data not shown
Experimental: To monitor stability of the individual enriched isomers, HPLC data was collected on samples stored in the presence and absence of laboratory light. Measurements were made on samples stored in methanol at 23° C. Initial HPLC sampling was carried out on individual isomers shielded to minimize exposure to laboratory light. These same samples were allowed to remain in the autosampler, shielded from light, for 72 hours before additional HPLC data was collected. Following this, the samples were stored on a lab bench exposed to laboratory light for 52 hours, at which time the final HPLC data time point was collected. Under these conditions, samples that were shielded from light remained stable, showing no change in their respective HPLC chromatograms.

Row | Compound | equilibration between double bond isomers
1 | CC(=C\C=C\C(C)=C\C(O)C(O)CC(C)O)/C=C(C)/C=C/C(=O)OC1CCCC(=O)OC(C(C)C/C(C)=C/C(C)C(O)CC(C)O)C/C=C(\C)CC1C (centres unmarked) [mycolactone B] | occur only when the sample was exposed to ambient light
2 | mycolactone A | occur only when the sample was exposed to ambient light
